# From ChEMBL document CHEMBL3120142 (J Med Chem, 2014)
# Calls of active or inactive are those of the source. No cut-off for these calls is given here.
# Experiments:
# Influenza A virus [1] = type: functional, organism-based; conditions: A/Jena/5258/2009(H1N1), MDCK
# Influenza A virus [2] = assay: microbe, parasite or virus in culture; conditions: A/Jena/5258/2009(H1N1), MDCK, 48 h
# Influenza A virus [3] = assay: Antiviral activity against Influenza A virus H3N2; type: functional, organism-based
# Influenza A virus [4] = assay: Antiviral activity against Influenza A virus H1N1; type: functional, organism-based
# MDCK = assay: Cytotoxicity against MDCK cells assessed as cell viability after 72 hrs; type: cell-based, Canis lupus familiaris; conditions: dog
# Liver = assay: Prodrug activation in 9000g human liver supernatant assessed as formation of oseltamivir carboxylate per mg protein at 500 uM after 30 mins by HPLC analysis; type: tissue-based; conditions: 0.5 h
# in vivo [5] = conditions: Sprague-Dawley, rat, po, 50 mg/kg
# Description: Half life in Sprague-Dawley rat at 50 mg/kg, po by LC-MS/MS analysis
# [6] = AUC in Sprague-Dawley rat at 50 mg/kg, iv by LC-MS/MS analysis; type: ADME, organism-based; parameters: dose 50 mg/kg, route intravenous; conditions: plasma
# Liver microsome = assay: Prodrug activation in human liver microsomes assessed as formation of oseltamivir carboxylate per mg protein at 500 uM after 30 mins by HPLC analysis; conditions: 0.5 h
# [7] = Prodrug activation in 9000g pig liver supernatant assessed as formation of oseltamivir carboxylate per mg protein at 500 uM after 30 mins by HPLC analysis; type: tissue-based, Sus scrofa; conditions: 0.5 h
# [8] = Cmax in Sprague-Dawley rat at 50 mg/kg, po by LC-MS/MS analysis; type: ADME, organism-based; parameters: dose 50 mg/kg, route oral; conditions: in vivo
# [9] = Tmax in Sprague-Dawley rat at 50 mg/kg, po by LC-MS/MS analysis; type: ADME, organism-based; parameters: dose 50 mg/kg, route oral; conditions: in vivo
# [10] = Chemical stability of the compound in phosphate buffer saline at pH 2.0 to 9.0; type: physicochemical
# in vivo [11] = conditions: Sprague-Dawley, rat, po, 10 mg/kg
# [12] = Solubility of the compound in phosphate buffer saline at pH 7.4 after 20 mins by HPLC analysis; type: physicochemical
# [13] = Prodrug activation in pig liver microsomes assessed as formation of oseltamivir carboxylate per mg protein at 500 uM after 30 mins by HPLC analysis; parameters: species or system Sus scrofa, Microsome; conditions: 0.5 h
# [14] = Solubility of the compound in phosphate buffer saline at pH 9.0 after 20 mins by HPLC analysis; type: physicochemical
# [15] = Mean residence time in Sprague-Dawley rat at 50 mg/kg, po by LC-MS/MS analysis; type: ADME, organism-based; parameters: dose 50 mg/kg, route oral; conditions: in vivo
# [16] = Prodrug activation in human liver mitochondria assessed as formation of oseltamivir carboxylate per mg protein at 500 uM after 30 mins by HPLC analysis; conditions: 0.5 h
# albumin = albumin (Homo sapiens, UniProt P02768); assay: Binding affinity to albumin (unknown origin) at 10 to 50 uM after 10 mins by HPLC analysis; type: ADME; conditions: read-out: PPB (converted)
# [17] = Prodrug activation in human liver cytosol assessed as formation of oseltamivir carboxylate per mg protein at 500 uM after 30 mins by HPLC analysis; type: tissue-based; conditions: 0.5 h
# [18] = Prodrug activation in pig liver mitochondria assessed as formation of oseltamivir carboxylate per mg protein at 500 uM after 30 mins by HPLC analysis; parameters: species or system Sus scrofa; conditions: 0.5 h
# in vivo [19] = conditions: Sprague-Dawley, rat, po, 50 mg/kg; remark: listed apart in the source
# [20] = Solubility of the compound in phosphate buffer saline at pH 2.0 after 20 mins by HPLC analysis; type: physicochemical
# [21] = Prodrug activation in pig liver assessed as carboxylesterase-mediated oseltamivir carboxylate formation per mg protein at 500 uM after 30 mins by HPLC analysis; type: tissue-based, Sus scrofa; conditions: 0.5 h
# [22] = Prodrug activation in pig liver cytosol assessed as formation of oseltamivir carboxylate per mg protein at 500 uM after 30 mins by HPLC analysis; type: tissue-based, Sus scrofa; conditions: 0.5 h
# [23] = Plasma protein binding in human at 10 to 50 uM after 10 mins by HPLC analysis; type: ADME, cell-free; conditions: read-out: PPB (converted)
# Neuraminidase [24] = molecular target: T1, Neuraminidase (Influenza A virus, UniProt B4URF0); parameters: species or system A/Rheinland-Pfalz/3911/03(H3N2)
# in vivo [25] = conditions: Sprague-Dawley, rat, iv, 10 mg/kg
# Description: Half life in Sprague-Dawley rat at 10 mg/kg, iv by LC-MS/MS analysis
# Neuraminidase [26] = molecular target: T1, Neuraminidase; parameters: species or system A/Hong Kong/68(H3N2)
# Rattus norvegicus = assay: Bioavailability in Sprague-Dawley rat at 10 mg/kg, iv by LC-MS/MS analysis; type: ADME, organism-based; conditions: in vivo
# [27] = Mean residence time in Sprague-Dawley rat at 10 mg/kg, iv by LC-MS/MS analysis; type: ADME, organism-based; parameters: dose 10 mg/kg, route intravenous; conditions: in vivo
# Neuraminidase [28] = molecular target: T1, Neuraminidase; parameters: species or system A/Jena/5555/09(H1N1)
# Neuraminidase [29] = molecular target: T1, Neuraminidase; parameters: species or system A/Jena/5258/2009(H1N1)
# Neuraminidase [30] = molecular target: T1, Neuraminidase; parameters: species or system A/Sachsen/6/02(H3N2)
# Neuraminidase [31] = molecular target: T1, Neuraminidase; parameters: species or system A/HH/1580/09(H1N1)
# Neuraminidase [32] = molecular target: T1, Neuraminidase; parameters: species or system A/Berlin/10/04(H3N2)
# [33] = Oral bioavailability in fed mouse at 10 mg/kg by LC-MS/MS analysis; type: ADME, organism-based; conditions: in vivo
# [34] = Oral bioavailability in fasted mouse at 10 mg/kg by LC-MS/MS analysis; type: ADME, organism-based; conditions: in vivo
# [35] = AUC in Sprague-Dawley rat at 10 mg/kg, iv by LC-MS/MS analysis; type: ADME, organism-based; parameters: dose 10 mg/kg, route intravenous; conditions: plasma
# [36] = Half life in Sprague-Dawley rat plasma; type: ADME, cell-free
# T1 sequence (B4URF0 whole entry): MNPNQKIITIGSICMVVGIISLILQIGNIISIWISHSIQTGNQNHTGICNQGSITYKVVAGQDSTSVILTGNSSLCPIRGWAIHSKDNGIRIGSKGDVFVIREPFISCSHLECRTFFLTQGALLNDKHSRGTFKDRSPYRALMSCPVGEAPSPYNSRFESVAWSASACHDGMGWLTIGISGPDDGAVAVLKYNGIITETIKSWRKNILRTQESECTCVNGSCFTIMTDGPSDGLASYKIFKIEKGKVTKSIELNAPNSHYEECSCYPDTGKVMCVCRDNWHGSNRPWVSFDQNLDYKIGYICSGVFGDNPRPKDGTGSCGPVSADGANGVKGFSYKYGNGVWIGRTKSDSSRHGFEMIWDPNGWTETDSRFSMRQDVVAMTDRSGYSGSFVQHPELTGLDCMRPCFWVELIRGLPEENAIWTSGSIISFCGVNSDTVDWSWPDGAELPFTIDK
# albumin, sequence (P02768 whole entry): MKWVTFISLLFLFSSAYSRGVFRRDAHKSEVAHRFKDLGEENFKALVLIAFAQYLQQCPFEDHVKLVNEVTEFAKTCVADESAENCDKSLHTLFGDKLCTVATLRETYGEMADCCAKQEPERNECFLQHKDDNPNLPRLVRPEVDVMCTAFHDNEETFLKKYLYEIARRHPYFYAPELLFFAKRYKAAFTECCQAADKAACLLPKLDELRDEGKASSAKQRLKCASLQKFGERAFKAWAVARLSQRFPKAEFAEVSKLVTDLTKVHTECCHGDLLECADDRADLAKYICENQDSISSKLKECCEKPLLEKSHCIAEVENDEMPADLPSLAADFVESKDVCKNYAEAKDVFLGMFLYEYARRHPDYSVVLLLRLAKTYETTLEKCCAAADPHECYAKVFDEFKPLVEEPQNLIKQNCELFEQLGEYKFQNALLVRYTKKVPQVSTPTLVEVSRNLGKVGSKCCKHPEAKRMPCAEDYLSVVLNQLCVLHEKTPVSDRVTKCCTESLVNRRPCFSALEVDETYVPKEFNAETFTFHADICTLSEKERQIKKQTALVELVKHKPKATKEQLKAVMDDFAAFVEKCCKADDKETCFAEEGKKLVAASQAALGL
Compound,EC50 (Influenza A virus [2]) [nM],IC50 (Influenza A virus [3]) [nM],IC50 (Influenza A virus [4]) [nM],IC (MDCK),Drug metabolism (Liver) [nmol/min/mg],half-life (in vivo [5]) [h],AUC [6] [ng·h/mL],Drug metabolism (Liver microsome) [nmol/min/mg],Cmax [8] [ng/mL],Tmax [9] [h],Stability [10],solubility at 20 min [12] [mM],solubility at 20 min [14] [mM],MRT [15] [h],Drug metabolism [16] [nmol/min/mg],"fraction unbound at 10 min, up to 50 µM (albumin)",Drug metabolism [18] [nmol/min/mg],bioavailability (in vivo [19]) [%],solubility at 20 min [20] [mM],also measured
CC(=O)N[C@H]1[C@H]([C@H](O)[C@H](O)CO)OC(C(=O)O)=C[C@@H]1NC(=N)N [ZANAMIVIR],6560,,,,,,,,,,,,,,,,,,,Activity (Influenza A virus [1]): Active
CCC(CC)O[C@@H]1C=C(C(=O)O)C[C@H](N)[C@H]1NC(C)=O [OSELTAMIVIR CARBOXYLATE],5210,0.24,0.12,<= 200 ug ml-1,,,,,,,,,,,,,,,,Activity (Influenza A virus [1]): Active
CCOC(=O)C1=C[C@@H](OC(CC)CC)[C@H](NC(C)=O)[C@@H](NC(=N)N)C1,,,,,0.32,1.45,217,1.06,100,1,Stable,> 50,> 50,2.62,0.79,0.699,0.21,1.3,> 50,Drug metabolism [7]: 0.22 nmol/min/mg; bioavailability (in vivo [11]): 2.1%; Drug metabolism [13]: 0.22 nmol/min/mg; Drug metabolism [17]: 0.5 nmol/min/mg; Drug metabolism [21]: 1.35 nmol/min/mg
CCOC(=O)C1=C[C@@H](OC(CC)CC)[C@H](NC(C)=O)[C@@H](N/C(C)=N/O)C1,,,,,0.56,1.85,13300,2.3,3100,1.37,Stable,23,23,3.43,0.29,0.733,0.51,31.4,> 50,Drug metabolism [22]: 0.4 nmol/min
CC(=O)N[C@H]1[C@H]([C@H](O)[C@H](O)CO)OC(C(=O)O)=C[C@@H]1N=C(N)N [ZANAMIVIR],,,,<= 200 ug ml-1,,,,,,,,,,,,,,,,
CCOC(=O)C1=C[C@@H](OC(CC)CC)[C@H](NC(C)=O)[C@@H](NC(N)=NO)C1,,,,,0.76,1.15,317,1.76,100,1.52,Stable,> 50,> 50,2.8,1.74,0.625,,1.5,> 50,Drug metabolism [17]: 0.28 nmol/min/mg
Br.CCOC(=O)C1=C[C@@H](OC(CC)CC)[C@H](NC(C)=O)[C@@H](NC(C)=N)C1,,,,,0.2,0.7,283,0.64,200,0.517,Stable,> 50,> 50,1.62,0.56,0.652,0.15,0.8,> 50,Drug metabolism [7]: 0.42 nmol/min/mg; Drug metabolism [13]: 0.3 nmol/min/mg; Drug metabolism [22]: 0.66 nmol/min; Drug metabolism [21]: 0.83 nmol/min/mg
CCC(CC)O[C@@H]1C=C(C(=O)O)C[C@H](NC(C)=N)[C@H]1NC(C)=O,1900,1.82,0.4,0.53 mM,,1.13,1880,,600,0.733,Stable,> 50,> 50,2.1,,0.978,,3.9,> 50,"fraction unbound at 10 min, up to 50 µM [23]: 0.963; IC50 (Neuraminidase [24]): 1.79 nM; half-life (in vivo [25]): 0.567 h; IC50 (Neuraminidase [26]): 1.87 nM; F (Rattus norvegicus): 100%; MRT [27]: 0.533 h; IC50 (Neuraminidase [28]): 0.44 nM; IC50 (Neuraminidase [29]): 0.45 nM; IC50 (Neuraminidase [30]): 2.3 nM; IC50 (Neuraminidase [31]): 0.3 nM; IC50 (Neuraminidase [32]): 1.3 nM"
CCC(CC)O[C@@H]1C=C(C(=O)O)C[C@H](NC(=N)N)[C@H]1NC(C)=O,3120,0.8,0.22,0.55 mM,,1.22,450,,300,1.72,Stable,,,2.2,,0.996,,1.9,,"fraction unbound at 10 min, up to 50 µM [23]: 0.914; half-life (in vivo [25]): 1.57 h; F (Rattus norvegicus): 100%; bioavailability [33]: 23%; bioavailability [34]: 48%; MRT [27]: 0.983 h; AUC [35]: 4800 ng·h/mL"
CCOC(=O)C1=C[C@@H](OC(CC)CC)[C@H](NC(C)=O)[C@@H](N)C1 [OSELTAMIVIR],,,,,,,,,,,,,,,,,,,,half-life [36]: 0.733 h; bioavailability (in vivo [11]): 36%
